According to patent US20120115845A1, “THERAPEUTIC AGENTS” (priority 2007, published 2012):

Legend:
human GHS receptor [1] = molecular target: T1, human GHS receptor (Homo sapiens, UniProt Q92847); experiment: Ghrelin IP1 agonist assay (IP1 HTRF); type: cell-based; design: expressed in transfected cells; host or cells: HEK293s; details: for Emax: 2 h, agonist effect as % maximal effect of GHRP-6 (5 μM), read-out: h IP1 ag %; for EC50: HEK293s cells stably expressing human GHS receptor, 2 hours at 37° C., read-out: h IP1 ag EC50
T1 sequence (Q92847 whole entry): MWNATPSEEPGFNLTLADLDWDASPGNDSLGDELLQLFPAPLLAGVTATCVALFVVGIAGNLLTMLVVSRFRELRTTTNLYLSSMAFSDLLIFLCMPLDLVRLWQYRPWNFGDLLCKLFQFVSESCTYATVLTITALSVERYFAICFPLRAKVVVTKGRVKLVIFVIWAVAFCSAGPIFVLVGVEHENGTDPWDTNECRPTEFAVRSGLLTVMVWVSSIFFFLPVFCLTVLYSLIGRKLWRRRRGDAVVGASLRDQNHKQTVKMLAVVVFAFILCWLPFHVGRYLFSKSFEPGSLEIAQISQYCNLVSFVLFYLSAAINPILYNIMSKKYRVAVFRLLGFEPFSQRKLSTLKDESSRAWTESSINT
How it was run: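 Cells: HEK293s stably expressing human GHS receptor, in stimulation buffer containing 0.02% fatty acid free BSA.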

human GHS receptor [2] = molecular target: T1, human GHS receptor; experiment: h bind IC50 (binding assay, Table 1); details: human receptor; Table 1

SMILES	Emax (human GHS receptor [1])	EC50 (human GHS receptor [1])	IC50 (human GHS receptor [2])
Cc1cc(Cl)c(C(=O)NC(=O)Nc2nc3ccc(S(=O)(=O)C4CCN(C)CC4)cc3s2)cc1-n1cccn1 [Example 260, 2-chloro-4-methyl-N-(6-(1-methylpiperidin-4-ylsulfonyl)benzo [d]thiazol-2-ylcarbamoyl)-5-(1H-pyrazol-1-yl)benzamide]	1.52%	9230 nM	5.78 nM
CN1CCN(CCCS(=O)(=O)c2ccc3nc(NC(=O)NC(=O)c4cc(-n5cccn5)ccc4Cl)sc3c2)CC1 [Example 88, 2-Chloro-N-(6-(3-(4-methylpiperazin-1-yl)propylsulfonyl)benzothiazol-2-ylcarbamoyl)-5-(1H-pyrazol-1-yl)benzamide]	4.42%	≥ 25000 nM	0.7 nM
CC(C)NCCS(=O)(=O)c1ccc2nc(NC(=O)NC(=O)c3ccccc3Cl)sc2c1 [Example 10, 2-Chloro-N-[[6-[2-(propan-2-ylamino)ethylsulfonyl]benzothiazol-2-yl]carbamoyl]benzamide]	44.1%	18.9 nM	27.3 nM
Cc1ccnn1-c1ccc(Cl)c(C(=O)NC(=O)Nc2nc3ccc(S(C)(=O)=O)cc3s2)c1 [Example 55, 2-Chloro-5-(5-methyl-1H-pyrazol-1-yl)-N-(6-(methylsulfonyl)benzothiazol-2-ylcarbamoyl)benzamide]	48.9%	5.7 nM	23.1 nM
CS(=O)(=O)c1ccc2nc(NC(=O)NC(=O)c3c(F)cccc3Cl)sc2c1 [Example 106, 2-Chloro-6-fluoro-N-[(6-methylsulfonylbenzothiazol-2-yl)carbamoyl]benzamide]	12.9%	32.8 nM	216 nM
CN1CCN(CCCS(=O)(=O)c2ccc3nc(NC(=O)NC(=O)c4cc(-c5cncs5)ccc4Cl)sc3c2)CC1 [Example 96, 2-Chloro-N-(6-(3-(4-methylpiperazin-1-yl)propylsulfonyl)benzothiazol-2-ylcarbamoyl)-5-(thiazol-5-yl)benzamide]	13.1%	432 nM	2.9 nM
O=C(NC(=O)c1cc(-n2cccc2)ccc1Cl)Nc1nc2ccc(S(=O)(=O)[C@H]3CCNC3)cc2s1 [Example 77, 2-Chloro-N-[[6-[(3S)-pyrrolidin-3-yl]sulfonylbenzothiazol-2-yl]carbamoyl]-5-pyrrol-1-yl-benzamide]	0.911%	≥ 25000 nM	1.7 nM
COc1ccc(C(=O)NC(=O)Nc2nc3ccc(S(C)(=O)=O)cc3s2)c(-c2ccc(F)cc2)c1 [Example 123, 2-(4-Fluorophenyl)-4-methoxy-N-[(6-methylsulfonylbenzothiazol-2-yl)carbamoyl]benzamide]	31.2%	54.5 nM	120 nM
CS(=O)(=O)c1ccc2nc(NC(=O)NC(=O)c3cc(-n4ccnc4)ccc3Cl)sc2c1 [Example 69, 2-Chloro-5-(1H-imidazol-1-yl)-N-(6-(methylsulfonyl)benzothiazol-2-ylcarbamoyl)benzamide]	14.1%	3010 nM	37.4 nM
CN1CCC(Oc2ccc(Cl)c(C(=O)NC(=O)Nc3nc4ccc(S(C)(=O)=O)cc4s3)c2)C1 (stereo not drawn) [Example 250, 2-chloro-5-(1-methylpyrrolidin-3-yloxy)-N-(6-(methylsulfonyl)benzo[d]thiazol-2-ylcarbamoyl) benzamide]	6.82%	5130 nM	3780 nM
CS(=O)(=O)c1ccc2nc(NC(=O)NC(=O)c3cc([N+](=O)[O-])ccc3Cl)sc2c1 [Example 70, 2-Chloro-N-(6-(methylsulfonyl)benzothiazol-2-ylcarbamoyl)-5-nitrobenzamide]	0.5%	389 nM	141 nM
CCOc1ccc(Cl)c(C(=O)NC(=O)Nc2nc3ccc(S(=O)(=O)CCCN4CCN(C)CC4)cc3s2)c1 [Example 93, 2-Chloro-5-ethoxy-N-(6-(3-(4-methylpiperazin-1-yl)propylsulfonyl)benzothiazol-2-ylcarbamoyl)benzamide]	3.9%	30.1 nM	1.7 nM
CN1CCN(CCCS(=O)(=O)c2ccc3nc(NC(=O)NC(=O)c4cc(C5CC5)ccc4Cl)sc3c2)CC1 [Example 94, 2-Chloro-5-cyclopropyl-N-(6-(3-(4-methylpiperazin-1-yl)propylsulfonyl)benzothiazol-2-ylcarbamoyl)benzamide]	18.1%	7.24 nM	0.3 nM
CN1CC(Oc2ccc(Cl)c(C(=O)NC(=O)Nc3nc4ccc(S(C)(=O)=O)cc4s3)c2)C1 [Example 257, 2-chloro-5-(1-methylazetidin-3-yloxy)-N-(6-(methylsulfonyl)benzo[d]thiazol-2-ylcarbamoyl) benzamide]	13.1%	≥ 20000 nM	846 nM
CS(=O)(=O)c1ccc2nc(NC(=O)NC(=O)c3ccc([N+](=O)[O-])cc3Cl)sc2c1 [Example 180, 2-Chloro-N-[(6-methylsulfonylbenzothiazol-2-yl)carbamoyl]-4-nitro-benzamide]	5.93%	67.3 nM	127 nM
CS(=O)(=O)Oc1ccc(Cl)c(C(=O)NC(=O)Nc2nc3ccc(S(C)(=O)=O)cc3s2)c1 [Example 58, 4-Chloro-3-(6-(methylsulfonyl)benzothiazol-2-ylcarbamoylcarbamoyl)phenyl methanesulfonate]	8.82%	3010 nM	1310 nM
CN(C)c1cccnc1-c1ccc(Cl)c(C(=O)NC(=O)Nc2nc3ccc(S(C)(=O)=O)cc3s2)c1 [Example 247]	0%	≥ 20000 nM	452 nM
Cc1ccn(-c2ccc(Cl)c(C(=O)NC(=O)Nc3nc4ccc(S(=O)(=O)CCCN5CCN(C)CC5)cc4s3)c2)n1 [Example 91, 2-Chloro-5-(3-methyl-1H-pyrazol-1-yl)-N-(6-(3-(4-methylpiperazin-1-yl)propylsulfonyl)benzothiazol-2-ylcarbamoyl)benzamide]	0.5%	4820 nM	0.5 nM
CS(=O)(=O)c1ccc2nc(NC(=O)NC(=O)c3cc(-c4ccccn4)ccc3Cl)sc2c1 [Example 45, 2-Chloro-5-(pyridin-2-yl)-N-(6-(methylsulfonyl)benzothiazol-2-ylcarbamoyl)benzamide]	0.946%	≥ 25000 nM	21.4 nM
Cc1ccc(F)c(C(=O)NC(=O)Nc2nc3ccc(S(C)(=O)=O)cc3s2)c1Cl [Example 194, 2-Chloro-6-fluoro-3-methyl-N-[(6-methylsulfonylbenzothiazol-2-yl)carbamoyl]benzamide]	39.4%	9.52 nM	172 nM
CS(=O)(=O)c1ccc2nc(NC(=O)NC(=O)c3cc(N4CCOCC4)ccc3Cl)sc2c1 [Example 54, 2-Chloro-N-(6-(methylsulfonyl)benzothiazol-2-ylcarbamoyl)-5-morpholin-4-yl benzamide]	0.0527%	≥ 25000 nM	10.1 nM

Other lines, results leading:

Emax (human GHS receptor [1])	EC50 (human GHS receptor [1])	IC50 (human GHS receptor [2])	SMILES
9.06%	≥ 25000 nM	1740 nM	CS(=O)(=O)c1ccc2nc(NC(=O)NC(=O)c3cc(CN4CCCC4)ccc3Cl)sc2c1 [Example 62, 2-Chloro-5-pyrrolidin-1-ylmethyl-N-(6-(methylsulfonyl)benzothiazol-2-ylcarbamoyl)benzamide]
47%	10.9 nM	12.5 nM	CCN(CC)CCCS(=O)(=O)c1ccc2nc(NC(=O)NC(=O)c3ccccc3Cl)sc2c1 [Example 153, 2-Chloro-N-[[6-(3-diethylaminopropylsulfonyl)benzothiazol-2-yl]carbamoyl]benzamide]
49%	5.73 nM	18.2 nM	O=C(NC(=O)c1ccccc1Cl)Nc1nc2ccc(S(=O)(=O)C3CCNC3)cc2s1 (stereo not drawn) [Example 44, 2-Chloro-N-[(6-pyrrolidin-3-ylsulfonylbenzothiazol-2-yl)carbamoyl]benzamide]
17.3%	219 nM	100 nM	Cc1ccccc1C(=O)NC(=O)Nc1nc2ccc(S(C)(=O)=O)cc2s1 [Example 128, 2-Methyl-N-[(6-methylsulfonylbenzothiazol-2-yl)carbamoyl]benzamide]
49.4%	67.1 nM	127 nM	O=C(NC(=O)c1ccccc1Cl)Nc1nc2ccc(S(=O)(=O)C[C@H]3CCCN3)cc2s1 [Example 165, 2-Chloro-N-[[6-[[(2R)-pyrrolidin-2-yl]methylsulfonyl]benzothiazol-2-yl]carbamoyl]benzamide]
19.3%	27.6 nM	306 nM	CS(=O)(=O)c1ccc2nc(NC(=O)NC(=O)c3ccc(F)cc3Cl)sc2c1 [Example 107, 2-Chloro-4-fluoro-N-[(6-methylsulfonylbenzothiazol-2-yl)carbamoyl]benzamide]
53.9%	46.4 nM	280 nM	CN1CCCC(S(=O)(=O)c2ccc3nc(NC(=O)NC(=O)c4ccccc4Cl)sc3c2)C1 (stereo not drawn) [Example 166, 2-Chloro-N-[[6-[(1-methyl-3-piperidyl)sulfonyl]benzothiazol-2-yl]carbamoyl]benzamide]
50.2%	23 nM	27.2 nM	CNC1CC(S(=O)(=O)c2ccc3nc(NC(=O)NC(=O)c4ccccc4Cl)sc3c2)C1 (stereo not drawn) [Example 215, 2-Chloro-N-[[6-(3-methylaminocyclobutyl)sulfonylbenzothiazol-2-yl]carbamoyl]benzamide]
41.5%	24.9 nM	88.5 nM	O=C(NC(=O)c1ccccc1Cl)Nc1nc2ccc(S(=O)(=O)CCN3CCCCC3)cc2s1 [Example 33, 2-Chloro-N-[[6-[2-(1-piperidyl)ethylsulfonyl]benzothiazol-2-yl]carbamoyl]benzamide]
43.9%	70.2 nM	174 nM	CCN1CCC[C@@H]1CS(=O)(=O)c1ccc2nc(NC(=O)NC(=O)c3ccccc3Cl)sc2c1 [Example 164, 2-Chloro-N-[[6-[[(2R)-1-ethylpyrrolidin-2-yl]methylsulfonyl]benzothiazol-2-yl]carbamoyl]benzamide]
